# Active and inactive are the calls of the source. The calls are words filed in the database; no cut-off is given here.
# What was measured:
# THP-M [1] = experiment: Induction of mitochondrial membrane potential loss in human THP-M cells pretreated for 24 hrs followed by stimulated with LPS for 3 hrs and ATP for 1 hr by Mitochondrial damage experiment; assay type: functional, cell-based; conditions: time 28.0 hrs
# [2] = Cmax in Sprague-Dawley rat at 20 mg/kg, IG measured upto 1440 mins by LC-MS/MS analysis; assay type: ADME, organism-based; conditions: in vivo, po
# Rattus norvegicus [3] = experiment: (§1) Anti-inflammatory activity against complete Freund's adjuvant (CFA)-induced arthritis rat model assessed as decrease in serum IL-1beta level at 20 to 80 mg/kg, ip treated after 17 days of CFA challenge measured after 18 days (day 17 to 34) by ELISA relative to model group; assay type: functional, organism-based; conditions: dose 20-80 mg/kg, time 18.0 day
# [4] = target: T1, NACHT, LRR and PYD domains-containing protein 1 (Homo sapiens) (UniProt Q9C000); experiment: Inhibition of NLRP1 inflammasome in Val-boroPro-induced human THP-M cells assessed as inhibition of IL-1beta level at 20 to 60 uM pretreated for 24 hrs followed by stimulated with LPS by ELISA; assay type: cell-based; conditions: dose 20-60 µM
# T1 sequence (whole entry): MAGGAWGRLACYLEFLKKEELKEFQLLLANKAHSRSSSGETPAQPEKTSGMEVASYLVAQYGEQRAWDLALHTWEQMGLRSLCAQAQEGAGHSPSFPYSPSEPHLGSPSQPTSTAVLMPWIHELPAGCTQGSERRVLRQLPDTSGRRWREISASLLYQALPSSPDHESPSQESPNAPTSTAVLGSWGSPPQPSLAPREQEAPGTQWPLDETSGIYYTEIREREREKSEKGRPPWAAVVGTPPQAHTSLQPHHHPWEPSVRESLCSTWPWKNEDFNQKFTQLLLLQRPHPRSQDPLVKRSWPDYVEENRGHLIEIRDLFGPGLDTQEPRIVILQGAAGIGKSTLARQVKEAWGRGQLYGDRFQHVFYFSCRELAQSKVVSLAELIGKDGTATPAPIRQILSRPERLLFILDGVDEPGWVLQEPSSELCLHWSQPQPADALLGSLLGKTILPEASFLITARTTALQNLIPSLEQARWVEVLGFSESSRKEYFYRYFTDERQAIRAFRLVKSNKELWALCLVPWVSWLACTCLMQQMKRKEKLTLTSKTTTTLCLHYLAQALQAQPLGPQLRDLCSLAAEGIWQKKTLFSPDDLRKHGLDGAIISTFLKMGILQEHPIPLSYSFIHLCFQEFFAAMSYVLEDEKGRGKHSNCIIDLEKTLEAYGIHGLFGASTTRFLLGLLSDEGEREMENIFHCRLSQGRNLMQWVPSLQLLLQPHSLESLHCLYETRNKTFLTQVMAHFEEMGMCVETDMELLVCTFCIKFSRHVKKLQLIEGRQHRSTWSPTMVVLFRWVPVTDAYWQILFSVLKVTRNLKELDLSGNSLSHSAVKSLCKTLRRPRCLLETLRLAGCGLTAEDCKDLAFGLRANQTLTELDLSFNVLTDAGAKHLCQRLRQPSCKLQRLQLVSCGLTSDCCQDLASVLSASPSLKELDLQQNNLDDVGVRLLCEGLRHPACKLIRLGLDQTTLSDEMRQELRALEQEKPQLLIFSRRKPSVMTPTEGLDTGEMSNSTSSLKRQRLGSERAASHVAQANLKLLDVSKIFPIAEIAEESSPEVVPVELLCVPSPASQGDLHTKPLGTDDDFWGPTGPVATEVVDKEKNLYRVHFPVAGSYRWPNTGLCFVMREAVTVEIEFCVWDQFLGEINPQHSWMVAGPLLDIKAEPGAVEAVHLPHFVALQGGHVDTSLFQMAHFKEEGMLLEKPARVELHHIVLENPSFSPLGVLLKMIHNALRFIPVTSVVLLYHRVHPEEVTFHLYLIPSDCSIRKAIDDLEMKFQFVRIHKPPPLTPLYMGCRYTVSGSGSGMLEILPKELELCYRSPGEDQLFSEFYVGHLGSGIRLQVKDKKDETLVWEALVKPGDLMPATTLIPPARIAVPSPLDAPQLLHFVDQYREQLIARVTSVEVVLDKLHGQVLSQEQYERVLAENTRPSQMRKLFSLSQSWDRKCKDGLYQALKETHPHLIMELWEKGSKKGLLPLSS
# [5] = Half life in Sprague-Dawley rat at 20 mg/kg, IG measured upto 1440 mins by LC-MS/MS analysis; assay type: ADME, organism-based; conditions: in vivo, po
# Rattus norvegicus [6] = experiment: Anti-inflammatory activity against complete Freund's adjuvant (CFA)-induced arthritis rat model assessed as recovery in degree of swelling in left hind paw at 20 to 80 mg/kg, ip treated after 17 days of CFA challenge measured after 18 days (day 17 to 34) relative to control; assay type: functional, organism-based; conditions: dose 20-80 mg/kg, time 18.0 day
# Rattus norvegicus [7] = experiment: (§2) Anti-inflammatory activity against complete Freund's adjuvant (CFA)-induced arthritis rat model assessed as reduction in body weight at 20 to 80 mg/kg, ip treated after 17 days of CFA challenge measured after 18 days (day 17 to 34) relative to control; assay type: functional, organism-based; conditions: dose 20-80 mg/kg, time 18.0 day
# [8] = AUC (0 to t) in Sprague-Dawley rat at 20 mg/kg, IG measured upto 1440 mins by LC-MS/MS analysis; assay type: ADME, organism-based; conditions: in vivo, po
# [9] = Apparent volume of distribution during terminal phase in Sprague-Dawley rat at 20 mg/kg, IG measured upto 1440 mins by LC-MS/MS analysis; assay type: ADME, organism-based; conditions: in vivo, po, read-out: Vz/F
# [10] = Tmax in Sprague-Dawley rat at 20 mg/kg, IG measured upto 1440 mins by LC-MS/MS analysis; assay type: ADME, organism-based; conditions: in vivo, po
# [11] = MRT (0 to infinity) in Sprague-Dawley rat at 20 mg/kg, IG measured upto 1440 mins by LC-MS/MS analysis; assay type: ADME, organism-based; conditions: in vivo, po
# Rattus norvegicus [12] = experiment: as §1, with “synovial hyperplasia” for “decrease”, “rat synovium from the left rear ankle” for “serum IL-1beta level”, “H and E staining based assay” for “ELISA”; assay type: functional, organism-based; conditions: dose 20-80 mg/kg, time 18.0 day
# Rattus norvegicus [13] = experiment: Anti-inflammatory activity against complete Freund's adjuvant (CFA)-induced arthritis rat model assessed as decrease in spleen size at 20 to 80 mg/kg, ip treated after 17 days of CFA challenge measured after 18 days (day 17 to 34) relative to model group; assay type: functional, organism-based; conditions: dose 20-80 mg/kg, time 18.0 day
# [14] = AUC (0 to t) in Sprague-Dawley rat at 20 mg/kg, ip measured upto 720 mins by LC-MS/MS analysis; assay type: ADME, organism-based; conditions: in vivo
# THP-M [15] = experiment: Inhibition of NLRP3 and […] protein-protein interaction in human THP-M cells assessed as suppression activation of NLRP3 inflammasome by affecting ASC oligomerization at 10 to 50 uM pretreated for 24 hrs followed by stimulated with LPS for 3 hrs and ATP for 1 hr by co-IP analysis; assay type: cell-based; conditions: dose 10-50 µM, time 28.0 hrs
# Rattus norvegicus [16] = experiment: Anti-inflammatory activity against complete Freund's adjuvant (CFA)-induced arthritis rat model assessed as decrease in thymus size at 20 to 80 mg/kg, ip treated after 17 days of CFA challenge measured after 18 days (day 17 to 34) relative to model group; assay type: functional, organism-based; conditions: dose 20-80 mg/kg, time 18.0 day
# Rattus norvegicus [17] = experiment: as §2, with “NLRP3 in rat synovium from the left rear ankle” for “body weight”, “34) by immunohistochemistry based assay” for “34)”, “model group” for “control”; assay type: functional, organism-based; conditions: dose 20-80 mg/kg, time 18.0 day
smiles,measurement,setting,value
COCCCNC(=O)c1ccc(Cn2c(SCC3CCCCC3)nc3ccncc32)cc1,Activity,THP-M [1],inactive
same,Cmax,[2],448 ng/mL
same,Activity,Rattus norvegicus [3],Active
same,inhibition,[4],inactive
same,half-life,[5],128 min
same,Activity,Rattus norvegicus [6],Active
same,Activity,Rattus norvegicus [7],Active
same,AUC(0-t) at 24 h,[8],837 ng·h/mL
same,Vd/F,[9],73.4 L/kg
same,Tmax,[10],16.7 min
same,MRT inf,[11],2.7 h
same,Activity,Rattus norvegicus [12],Active
same,Activity,Rattus norvegicus [13],Active
same,AUC(0-t) at 12 h,[14],1860 ng·h/mL
same,inhibition,THP-M [15],Dose-Dependent Effect
same,Activity,Rattus norvegicus [16],Active
same,Activity,Rattus norvegicus [17],Active
